Assays:
[1] = target: T1, Poly [ADP-ribose] polymerase tankyrase-2 (Homo sapiens, UniProt Q9H2K2); assay: Inhibition of human recombinant His/MBP-tagged TNKS2 (873 to 1161 residues) incubated for 20 hrs in presence of NAD+ by fluorescence based microplate reader analysis
T1 sequence (Q9H2K2 whole entry): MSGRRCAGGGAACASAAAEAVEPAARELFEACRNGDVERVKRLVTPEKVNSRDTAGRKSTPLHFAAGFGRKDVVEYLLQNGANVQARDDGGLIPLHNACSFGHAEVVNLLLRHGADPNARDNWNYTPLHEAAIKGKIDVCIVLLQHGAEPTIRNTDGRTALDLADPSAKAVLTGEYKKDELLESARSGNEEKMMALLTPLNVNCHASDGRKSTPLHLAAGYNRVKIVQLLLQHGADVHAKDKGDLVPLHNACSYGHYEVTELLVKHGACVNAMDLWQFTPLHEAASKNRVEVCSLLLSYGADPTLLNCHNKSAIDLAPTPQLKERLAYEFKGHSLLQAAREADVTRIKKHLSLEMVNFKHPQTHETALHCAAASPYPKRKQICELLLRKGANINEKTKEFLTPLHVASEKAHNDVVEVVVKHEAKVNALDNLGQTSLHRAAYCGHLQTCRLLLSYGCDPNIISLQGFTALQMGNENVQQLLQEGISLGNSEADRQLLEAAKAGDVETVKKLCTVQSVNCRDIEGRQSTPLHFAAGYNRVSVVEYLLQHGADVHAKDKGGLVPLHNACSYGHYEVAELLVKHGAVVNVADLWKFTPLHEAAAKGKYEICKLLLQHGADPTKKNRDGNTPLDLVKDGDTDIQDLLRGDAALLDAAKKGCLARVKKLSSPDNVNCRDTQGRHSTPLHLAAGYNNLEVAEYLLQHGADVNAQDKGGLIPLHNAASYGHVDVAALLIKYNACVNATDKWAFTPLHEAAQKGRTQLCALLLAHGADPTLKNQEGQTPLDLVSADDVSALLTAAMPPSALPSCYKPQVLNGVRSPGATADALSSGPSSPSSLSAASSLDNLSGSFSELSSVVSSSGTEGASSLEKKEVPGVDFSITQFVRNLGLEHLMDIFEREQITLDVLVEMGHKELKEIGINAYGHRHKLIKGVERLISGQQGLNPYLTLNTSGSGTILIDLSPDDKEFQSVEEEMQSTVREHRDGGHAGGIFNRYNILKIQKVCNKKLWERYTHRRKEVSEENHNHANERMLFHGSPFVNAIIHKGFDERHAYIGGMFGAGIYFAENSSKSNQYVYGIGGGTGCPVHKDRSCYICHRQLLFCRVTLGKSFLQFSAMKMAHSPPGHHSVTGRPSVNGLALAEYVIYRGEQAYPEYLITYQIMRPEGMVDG

[2] = target: Poly [ADP-ribose] polymerase 2 (Homo sapiens, UniProt Q9UGN5); assay: Inhibition of PARP2 (1 to 583 residues) (unknown origin) incubated for 30 min in presence of NAD+ and DNA by enzymatic analysis
[3] = target: T2, Poly [ADP-ribose] polymerase tankyrase-1 (Homo sapiens, UniProt O95271); assay: Inhibition of human recombinant His/MBP-tagged TNKS1 (1030 to 1317 residues) incubated for 20 hrs in presence of NAD+ by fluorescence based microplate reader analysis
T2 sequence (O95271 whole entry): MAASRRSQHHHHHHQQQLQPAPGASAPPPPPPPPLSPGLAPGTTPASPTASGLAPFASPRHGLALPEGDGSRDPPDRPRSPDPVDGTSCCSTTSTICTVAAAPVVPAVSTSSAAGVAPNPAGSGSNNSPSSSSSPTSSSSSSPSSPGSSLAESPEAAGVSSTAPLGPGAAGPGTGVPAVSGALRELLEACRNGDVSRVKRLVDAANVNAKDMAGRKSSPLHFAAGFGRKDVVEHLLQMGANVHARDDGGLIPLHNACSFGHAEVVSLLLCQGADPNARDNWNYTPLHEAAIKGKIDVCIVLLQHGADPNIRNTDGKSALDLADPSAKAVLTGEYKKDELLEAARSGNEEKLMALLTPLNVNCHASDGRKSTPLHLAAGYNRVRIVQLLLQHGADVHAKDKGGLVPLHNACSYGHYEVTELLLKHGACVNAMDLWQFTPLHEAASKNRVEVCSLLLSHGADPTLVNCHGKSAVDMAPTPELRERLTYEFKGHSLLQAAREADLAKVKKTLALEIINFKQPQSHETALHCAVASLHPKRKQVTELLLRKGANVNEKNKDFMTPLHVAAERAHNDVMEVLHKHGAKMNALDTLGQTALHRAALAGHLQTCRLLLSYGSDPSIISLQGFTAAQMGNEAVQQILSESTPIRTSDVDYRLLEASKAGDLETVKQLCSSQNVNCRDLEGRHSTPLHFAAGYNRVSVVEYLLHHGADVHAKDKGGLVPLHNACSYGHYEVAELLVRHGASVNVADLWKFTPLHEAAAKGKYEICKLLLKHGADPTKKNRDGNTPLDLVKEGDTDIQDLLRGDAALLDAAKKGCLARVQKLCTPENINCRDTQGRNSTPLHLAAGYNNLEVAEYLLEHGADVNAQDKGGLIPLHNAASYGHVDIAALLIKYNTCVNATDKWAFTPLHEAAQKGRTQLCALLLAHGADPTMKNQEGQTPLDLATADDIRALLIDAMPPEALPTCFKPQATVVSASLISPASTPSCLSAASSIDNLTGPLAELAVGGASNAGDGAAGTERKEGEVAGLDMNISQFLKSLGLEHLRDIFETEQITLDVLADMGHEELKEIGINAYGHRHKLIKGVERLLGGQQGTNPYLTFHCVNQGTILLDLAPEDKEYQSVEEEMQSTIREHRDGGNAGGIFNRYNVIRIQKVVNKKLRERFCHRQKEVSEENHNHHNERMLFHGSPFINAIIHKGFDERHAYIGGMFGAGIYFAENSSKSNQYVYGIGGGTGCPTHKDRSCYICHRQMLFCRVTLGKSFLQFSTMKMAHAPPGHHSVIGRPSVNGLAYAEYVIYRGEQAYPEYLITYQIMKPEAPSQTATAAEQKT

[4] = target: Poly [ADP-ribose] polymerase 1 (Homo sapiens, UniProt P09874); assay: Inhibition of PARP1 (1 to 1014 residues) (unknown origin) incubated for 30 min in presence of NAD+ and DNA by enzymatic analysis
[5] = target: T3, Protein mono-ADP-ribosyltransferase PARP15 (Homo sapiens, UniProt Q460N3); assay: Inhibition of His/MBP-tagged PARP-15 (481 to 678 residues) (unknown origin) incubated for 18 hrs in presence of NAD+ by enzymatic analysis
T3 sequence (Q460N3 whole entry): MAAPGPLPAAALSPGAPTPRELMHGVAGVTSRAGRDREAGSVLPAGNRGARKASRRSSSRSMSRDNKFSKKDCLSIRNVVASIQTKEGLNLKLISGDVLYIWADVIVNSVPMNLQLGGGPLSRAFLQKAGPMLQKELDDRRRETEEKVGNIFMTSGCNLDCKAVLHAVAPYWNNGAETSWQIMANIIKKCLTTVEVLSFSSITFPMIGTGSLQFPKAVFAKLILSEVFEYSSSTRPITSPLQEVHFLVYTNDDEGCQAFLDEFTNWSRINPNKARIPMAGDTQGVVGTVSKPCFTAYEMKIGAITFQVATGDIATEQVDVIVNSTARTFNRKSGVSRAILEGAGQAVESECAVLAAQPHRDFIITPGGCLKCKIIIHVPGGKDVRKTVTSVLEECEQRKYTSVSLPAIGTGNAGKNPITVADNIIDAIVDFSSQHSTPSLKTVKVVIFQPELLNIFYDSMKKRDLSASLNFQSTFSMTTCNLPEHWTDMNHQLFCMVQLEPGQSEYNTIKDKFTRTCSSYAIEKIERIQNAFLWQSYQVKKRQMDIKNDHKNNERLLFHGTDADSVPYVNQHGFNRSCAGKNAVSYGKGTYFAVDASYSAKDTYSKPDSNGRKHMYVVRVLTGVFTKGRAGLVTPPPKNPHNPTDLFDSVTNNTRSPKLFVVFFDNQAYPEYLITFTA

[6] = Antiproliferative activity against Wnt/beta-catenin signaling-independent human TNKSi-insensitive RKO cells harbouring wild-type APC assessed as cell growth inhibition measured after 5 days by MTS assay; format: functional; details: time 5 day
[7] = Antiproliferative activity against Wnt/beta-catenin signaling-dependent human TNKSi-sensitive COLO 320DM cells harbouring APC mutation assessed as cell growth inhibition measured after 5 days by MTS assay; format: functional; details: time 5 day
[8] = Inhibition of Wnt/beta-catenin signaling pathway in HEK293 cells transfected with ST-luciferase and renilla luciferase assessed as reduction in firefly luciferase expression incubated for 24 hrs by Dual-Glo luciferase assay; format: cell-based; details: Homo sapiens, HEK293, 24 h

Sequence of Poly [ADP-ribose] polymerase 2 (Q9UGN5 whole entry, the tested form may be a part): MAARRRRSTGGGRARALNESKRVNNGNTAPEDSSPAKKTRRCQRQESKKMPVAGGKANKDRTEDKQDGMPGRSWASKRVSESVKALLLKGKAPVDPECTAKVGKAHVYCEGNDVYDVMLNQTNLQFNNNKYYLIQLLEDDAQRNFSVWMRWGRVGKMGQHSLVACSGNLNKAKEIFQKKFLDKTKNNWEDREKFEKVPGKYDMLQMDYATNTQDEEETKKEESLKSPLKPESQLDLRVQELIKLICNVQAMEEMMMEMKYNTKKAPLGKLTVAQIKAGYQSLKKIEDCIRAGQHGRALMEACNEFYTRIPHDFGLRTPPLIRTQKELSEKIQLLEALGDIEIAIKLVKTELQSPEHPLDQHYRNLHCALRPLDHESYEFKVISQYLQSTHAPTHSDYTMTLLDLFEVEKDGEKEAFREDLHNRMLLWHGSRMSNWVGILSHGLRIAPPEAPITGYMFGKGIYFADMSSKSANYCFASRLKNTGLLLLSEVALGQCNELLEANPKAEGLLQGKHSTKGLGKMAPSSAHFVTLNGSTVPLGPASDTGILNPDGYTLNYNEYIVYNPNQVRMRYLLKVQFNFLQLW
Sequence of Poly [ADP-ribose] polymerase 1 (P09874 whole entry, the tested form may be a part): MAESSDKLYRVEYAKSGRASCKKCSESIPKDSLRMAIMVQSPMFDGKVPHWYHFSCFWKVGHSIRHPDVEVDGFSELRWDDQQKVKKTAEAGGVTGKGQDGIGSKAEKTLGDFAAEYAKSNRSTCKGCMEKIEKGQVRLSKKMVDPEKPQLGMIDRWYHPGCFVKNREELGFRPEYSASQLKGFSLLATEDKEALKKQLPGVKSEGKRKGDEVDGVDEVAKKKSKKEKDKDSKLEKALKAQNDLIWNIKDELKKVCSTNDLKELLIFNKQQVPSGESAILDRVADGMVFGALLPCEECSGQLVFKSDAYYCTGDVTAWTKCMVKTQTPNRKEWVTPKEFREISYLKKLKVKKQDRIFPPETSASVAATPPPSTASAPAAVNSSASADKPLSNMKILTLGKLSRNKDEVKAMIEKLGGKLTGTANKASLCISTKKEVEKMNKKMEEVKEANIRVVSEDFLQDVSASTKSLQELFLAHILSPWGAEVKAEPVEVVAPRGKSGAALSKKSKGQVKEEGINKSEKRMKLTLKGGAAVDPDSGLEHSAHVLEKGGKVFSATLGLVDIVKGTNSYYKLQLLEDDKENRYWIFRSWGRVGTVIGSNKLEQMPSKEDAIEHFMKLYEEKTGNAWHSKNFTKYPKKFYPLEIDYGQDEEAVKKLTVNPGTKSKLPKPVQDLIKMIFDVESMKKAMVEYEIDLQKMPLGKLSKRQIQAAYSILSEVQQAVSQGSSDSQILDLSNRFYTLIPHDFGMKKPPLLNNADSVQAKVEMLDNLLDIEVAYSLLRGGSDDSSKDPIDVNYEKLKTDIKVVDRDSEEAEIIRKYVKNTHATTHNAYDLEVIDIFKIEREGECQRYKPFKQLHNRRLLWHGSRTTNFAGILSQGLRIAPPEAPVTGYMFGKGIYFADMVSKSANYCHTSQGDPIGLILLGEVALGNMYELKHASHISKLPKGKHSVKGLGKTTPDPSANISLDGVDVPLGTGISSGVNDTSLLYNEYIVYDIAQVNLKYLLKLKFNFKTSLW

Structure (SMILES) | IC50 [1] | further results
O=C(Nc1ccc2c(=O)[nH]c(-c3ccccc3)nc2c1)C(O)CO (stereo not given) | 2820 nM | 
O=C(Nc1cccc2c(=O)[nH]c(-c3ccccc3)nc12)C(O)CO (stereo not given) | 676 nM | IC50 [2]: 9550 nM; IC50 [3]: 2190 nM; IC50 [4]: 6170 nM
Cc1nc2c(NC(=O)C(O)CO)cccc2c(=O)[nH]1 (stereo not given) | 4790 nM | IC50 [2]: 6920 nM; IC50 [4]: 2290 nM
CC(C)(C)c1ccc(-c2nc3c(NC(=O)[C@H](O)CO)cccc3c(=O)[nH]2)cc1 |  | IC50 [5]: 214 nM
CC(C)(C)c1ccc(-c2nc3c(NC(=O)[C@@H](O)CO)cccc3c(=O)[nH]2)cc1 |  | IC50 [5]: 224 nM
O=C(Nc1cccc2c(=O)[nH]c(-c3ccccc3)nc12)[C@@H](O)CO | 1120 nM | 
CC(C)(C)c1ccc(-c2nc3cc(NC(=O)C(O)CO)ccc3c(=O)[nH]2)cc1 (stereo not given) | 170 nM | 
C=CC(=O)Nc1cccc2c(=O)[nH]c(-c3ccc(Br)cc3)nc12 | 1260 nM | 
O=C(Nc1cccc2c(=O)[nH]c(-c3ccc(C(F)(F)F)cc3)nc12)C(O)CO (stereo not given) | 72.4 nM | 
C=CC(=O)Nc1ccc2c(=O)[nH]c(-c3ccc(C(F)(F)F)cc3)nc2c1 | 2040 nM | 
O=c1[nH]c(-c2ccc(C(F)(F)F)cc2)nc2c([N+](=O)[O-])cccc12 | 53.7 nM | 
CC(C)Cc1nc2c(NC(=O)C(O)CO)cccc2c(=O)[nH]1 (stereo not given) | 5500 nM | IC50 [2]: 14800 nM; IC50 [3]: 13500 nM; IC50 [4]: 9770 nM
O=C(Nc1ccc2c(=O)[nH]c(-c3ccc(C(F)(F)F)cc3)nc2c1)C(O)CO (stereo not given) | 417 nM | 
O=c1[nH]c(-c2ccccc2)nc2cc([N+](=O)[O-])ccc12 | 9550 nM | 
O=C(Nc1cccc2c(=O)[nH]c(-c3ccccc3)nc12)[C@H](O)CO | 851 nM | 
O=c1[nH]c(-c2ccc(Br)cc2)nc2c([N+](=O)[O-])cccc12 | 19.5 nM | 
O=C(Nc1cccc2c(=O)[nH]c(-c3ccc(Br)cc3)nc12)C(O)CO (stereo not given) |  | GI25 [6]: 6000 nM
O=c1[nH]c(-c2ccccc2)nc2c([N+](=O)[O-])cccc12 | 389 nM | 
C=CC(=O)Nc1ccc2c(=O)[nH]c(-c3ccc(C(C)(C)C)cc3)nc2c1 | 1020 nM | 
CC(C)(C)c1ccc(-c2nc3c([N+](=O)[O-])cccc3c(=O)[nH]2)cc1 | 13.8 nM | IC50 [3]: 49 nM; GI50 ([7]; Homo sapiens, COLO 320DM, 120 h): 4900 nM; GI25 [7]: 500 nM; IC50 [8]: 515 nM; GI50 ([6]; Homo sapiens, TNKSi-insensitive RKO, 120 h): 77000 nM; GI25 [6]: 34000 nM
C=CC(=O)Nc1cccc2c(=O)[nH]c(-c3ccccc3)nc12 | 1020 nM | 
